Measurements reported in PMC8626775, “Anti-schistosomal activities of quinoxaline-containing compounds: From hit identification to lead optimisation” (European Journal of Medicinal Chemistry, 2021).
pEC50: −log10 of the molar value. Entries after “also recorded” stand apart in the source; their conditions may differ. Like-named read-outs stand apart in the source and are kept apart here.

How the values were obtained:
S. mansoni adult worms = experiment: S. mansoni adult worm motility screen (WormassayGP2), 72 h; assay type: cell-based, Schistosoma mansoni; settings: Schistosoma mansoni
Text: Mice (Mus musculus HsdOLa:TO - Tuck Ordinary; Envigo, UK) were used for the mammalian-specific propagation of the S. mansoni life cycle. Experimental animals were infected with 4000 or 180 S. mansoni cercariae/mouse and perfused three- or seven-weeks post-infection to obtain S. mansoni juvenile or adult worms, respectively. Preparation steps following perfusion have been described previously. Briefly, the parasite material was washed three times with pre-warmed adult worm media (DMEM (Gibco, Paisley, UK) supplemented with 10% (v/v) Fetal Calf Serum (FCS, Gibco, Paisley, UK), 1% (v/v) L-glutamine (Gibco, Paisley, UK) and an antibiotic mixture (150 Units/ml penicillin and 150 μg/ml streptomycin; Gibco, UK)) to remove residual host contamination and incubated in a humidified environment containing 5% CO2 at 37 °C for at least 1 h.
For the evaluation of anti-schistosomal activity on the adult stage of the parasite, 7-wk old worms were transferred into 48 well tissue culture plates (1–3 worm pairs/well, in duplicate). […] DMSO (0.5%) and praziquantel (10 μM in 0.5% DMSO) were also included as negative and positive control treatments. Treated adult worms were incubated for 72 h in a humidified environment containing 5% CO2 at 37 °C. Parasite motility after compound treatment was assessed by a digital image processing-based system (WormassayGP2), modified after Wormassay. Following compound-parasite co-incubation, eggs were collected, fixed in formalin (10% v/v formaldehyde) and enumerated aiming to collect further information on any compound-induced effects on parasite fecundity and IVLE production.

HepG2 cells = experiment: HepG2 MTT cytotoxicity assay
Method: Initially the cells were handled under sterile conditions and grown at 37 °C in a humidified atmosphere containing 5% CO2. Cytotoxicity was evaluated by way of a 3-(4, 5- dimethylthiazol-2-yl)-2,5-diphenyl tetrazolium bromide (MTT) assay as previously described. The cells were counted in a dual chamber counting slide using the BIORAD TC-10 Automated cell counter, seeded in a 96-well plate (Fisher Scientific, Loughborough, UK) at a density of 2 × 10^4 cells/well and incubated in an atmosphere of 5% CO2 at 37 °C. […] The absorbance readings (at 570 nm) of the soluble formazan crystals were recorded using PolarStar Omega plate reader (BMG-Labtech). […] The latter was used to calculate the selectivity index (SI) of the compounds presented herein.

S. mansoni schistosomula = S. mansoni schistosomula high-throughput phenotype and motility screen (Roboworm), 72 h; assay type: cell-based, Schistosoma mansoni; settings: Schistosoma mansoni
Method: Cercariae derived from the NMRI ([…]) Puerto Rican strain (PR-1) of S. mansoni were shed from two Biomphalaria glabrata strains, the NMRI albino and pigmented outbred strains, under intensified lighting conditions (1 h of incubation at 26 °C). Cercariae were then mechanically transformed into schistosomula as previously described.
High-throughput screening (HTS) of selected compounds was conducted as previously described. Briefly, newly transformed schistosomula were distributed in a 384-well tissue culture plate (PerkinElmer, cat 6007460, seeding density of 120 parasites/well). Each compound (at a single concentration or two-fold titrations) was transferred into individual wells alongside the positive and negative controls (AUR at 10 μM final concentration in 0.625% DMSO and 0.625% DMSO, respectively). Schistosomula/compound co-cultures were then incubated at 37 °C for 72 h in a humidified atmosphere containing 5% CO2. Following the co-culture period, automatic assessment of compound-induced schistosomula motility and phenotypic changes were conducted with the high-content imaging platform Roboworm using the image analysis model previously described by Paveley et al..

[1] = system: adult S. japonicum male worms; experiment: In vitro screening of S. japonicum adults at 100 nM (WormAssay motility, descriptors, severity score); assay type: cell-based, Schistosoma japonicum; settings: for Effect on S. japonicum adult male worms: 5, 24, 48 and 72 h; for SEVERITY SCORES 5 h / SEVERITY SCORES 24 h / SEVERITY SCORES 48 h / SEVERITY SCORES 72 h: max = 4, one line per replicate
Method: (§1) For each species, parasite recovery involved reverse perfusion of the hepatic portal and mesenteric system using DMEM (Fisher Scientific). Parasites were washed six times with Basch 169 medium supplemented with 100 U/ml penicillin and 100 μg/ml streptomycin before manually distributing approximately 5 males per well (on occasion 1 or 2 females might also be present) of a 24-well plate (Corning Costar 3524). […] The next morning, a final concentration of 100 nM compound (in 1 μL DMSO) was added to each well and the final volume made up to 2 ml with Basch 169 medium supplemented with antibiotics and FBS. Each compound was tested in triplicate (except for some instances tested in duplicate). […] The phenotypic characterisation of compound effects focused on male worms due to the greater range of their motility characteristics that include flexing, bending, stretching, sucker walking and adherence, compared to the more sedentary female worms. In addition to descriptors, WormAssay, as adapted for the schistosome, was used to measure average worm motility per well [72, 73].

[2] = system: Adult S. haematobium worms; experiment: In vitro screening of S. haematobium adults at 100 nM (WormAssay motility, descriptors, severity score); assay type: cell-based, Schistosoma haematobium
Method: as §1

[3] = Table 4, Series A, read-out: Anti-schistosomal activity EC50 Adult (nM) Motility
[4] = Table 2, 72 h, titrations 0.0095–5 μM, WormassayGP2, read-out: Activity on adult worms (EC50, μM - 72 h) Motility
[5] = 72 h, Table 2, average of phenotype and motility EC50, 72 h, read-out: Activity on schistosomula (EC50, μM - 72 h) Average
[6] = 72 h, Table 2, motility, 72 h, three replicate titrations (0.313–10 μM), read-out: Activity on schistosomula (EC50, μM - 72 h) M
[7] = 72 h, Table 2, phenotype, 72 h, three replicate titrations (0.313–10 μM), read-out: Activity on schistosomula (EC50, μM - 72 h) P
[8] = Table 4, Series A, read-out: Anti-schistosomal activity EC50 Schistosomula (μM) Motility
[9] = Table 4, Series A, read-out: Anti-schistosomal activity EC50 Schistosomula (μM) Phenotype
[10] = Table 3, read-out: Anti-schistosomal activity EC50 (μM) Schistosomula Motility
[11] = Table 3, read-out: Anti-schistosomal activity EC50 (μM) Schistosomula Phenotype

Compound | EC50 (S. mansoni adult worms; [3]) | EC50 (S. mansoni adult worms; [4]) | EC50 (S. mansoni schistosomula; [5]) | EC50 (S. mansoni schistosomula; [6]) | EC50 (S. mansoni schistosomula; [7]) | EC50 (S. mansoni schistosomula; [8]) | EC50 (S. mansoni schistosomula; [9]) | Effect on S. japonicum adult male worms [1] | SEVERITY SCORES 5 h ([1]; S. japonicum) | SEVERITY SCORES 24 h ([1]; S. japonicum, 24 h) | SEVERITY SCORES 48 h ([1]; S. japonicum, 48 h) | SEVERITY SCORES 72 h ([1]; S. japonicum, 72 h) | EC50 (S. mansoni schistosomula; [10]) | EC50 (S. mansoni schistosomula; [11]) | also measured
O=[N+]([O-])c1ccc2nc(Nc3ccc(F)cc3)c(Nc3ccc(F)cc3)nc2c1 [Compound 28, N2, N3-bis(4-fluorophenyl)-6-nitroquinoxaline-2,3-diamine] | 382 nM | 382 nM | 1.77 µM | 1.4 µM | 2.14 µM | 1.4 µM | 2.14 µM |  |  |  |  |  |  |  | Toxicity on HepG2 in words (HepG2 cells; 24 h): low toxicity
O=[N+]([O-])c1ccc2nc(Nc3ccc(C(F)(F)F)cc3)c(Nc3ccc(C(F)(F)F)cc3)nc2c1 [Compound 31, 6-nitro-N2, N3-bis(4-(trifluoromethyl)phenyl)quinoxaline-2,3-diamine] | 7.7 nM | 7.7 nM | 0.31 µM | 0.28 µM | 0.34 µM | 0.28 µM | 0.34 µM | essentially lethal | 0 | 0 | 4 | 4 |  |  | Onset time on S. japonicum [1]: ≤ 24 h; DESCRIPTORS 24 h ([1]; S. japonicum, 24 h, one line per replicate): Dark, S, on sides; DESCRIPTORS 48 h ([1]; S. japonicum, 48 h, one line per replicate): Dying, deg; DESCRIPTORS 72 h ([1]; S. japonicum, 72 h, one line per replicate): Dying, D; Onset time on S. haematobium [2]: ≤ 24 h; Effect on S. haematobium adult worms ([2]; 5, 24, 48 and 72 h): best activity; SEVERITY SCORES 5 h ([2]; S. haematobium, 5 h, max = 4, one line per replicate): 0; SEVERITY SCORES 24 h ([2]; S. haematobium, 24 h, max = 4, one line per replicate): 2; DESCRIPTORS 24 h ([2]; S. haematobium, 24 h, one line per replicate): S, on sides; also recorded: S, onsides; SEVERITY SCORES 48 h ([2]; S. haematobium, 48 h, max = 4, one line per replicate): 2; DESCRIPTORS 48 h ([2]; S. haematobium, 48 h, one line per replicate): S, on sides; also recorded: S, onsides; SEVERITY SCORES 72 h ([2]; S. haematobium, 72 h, max = 4, one line per replicate): 3; DESCRIPTORS 72 h ([2]; S. haematobium, 72 h, one line per replicate): S, dark on sides
COc1ccc(Nc2nc3ccc([N+](=O)[O-])cc3nc2Nc2ccc(OC)c(C(F)(F)F)c2)cc1C(F)(F)F [Compound 35, N2, N3-bis(4-methoxy-3-(trifluoromethyl)phenyl)-6-nitroquinoxaline-2,3-diamine] | 44 nM | 44 nM | 0.66 µM | 0.69 µM | 0.63 µM | 0.69 µM | 0.63 µM | no appreciable activity | 0 | 0 | 0 | 0 |  |  | 
O=[N+]([O-])c1ccc2nc(NCc3ccccc3)c(NCc3ccccc3)nc2c1 [Compound 36, N2, N3-dibenzyl-6-nitroquinoxaline-2,3-diamine] |  |  | 2.91 µM | 2.64 µM | 3.19 µM |  |  |  |  |  |  |  | 2.64 µM | 3.19 µM | Selectivity Index (SI) Somula (HepG2 cells; HepG2 CC50 versus schistosomula EC50): 1.74; pEC50 (S. mansoni schistosomula; 72 h, read-out: EC50 on schistosomula (bounds and ranges given)): < 5.70
O=[N+]([O-])c1ccc2nc(NCCc3ccccc3)c(NCCc3ccccc3)nc2c1 [Compound 37, 6-nitro-N2, N3-diphenethylquinoxaline-2,3-diamine] |  | 195 nM | 1.84 µM | 1.47 µM | 2.2 µM |  |  |  |  |  |  |  | 1.47 µM | 2.2 µM | EC50 (S. mansoni adult worms; Table 3, read-out: Anti-schistosomal activity EC50 (μM) Adult Motility): 195 nM
